Reference: patent US20230123654A1 (priority 2020, published 2023)
Values joined by “and” are separate entries in the source; they are usually repeats but may differ in a detail not shown here. Equal entries are not always repeated. Where two headings read alike, the source gives them in different places.

Tests used:
[1] = target: Nav1.1 pore-mutant (F1763A-LA mutant) (Homo sapiens, UniProt P35498, F1774A); conditions: cited from earlier work
[2] = target: Nav1.4 DIV-S6 peptide ([…]) (Homo sapiens, UniProt P35499); assay type: binding
[3] = test system: gramicidin containing DC22:1PC LUVs
Nav1.4 P1158S = Nav1.4 P1158S (Homo sapiens, UniProt P35499, P1158S); assay type: cell-based
Nav1.4 WWWW = Nav1.4 WWWW (Homo sapiens, UniProt P35499, F432W/I1280W/I1583W/V787W); assay type: cell-based; further: test concentration or dose not given here
Nav1.5 [4] = target: T1, Nav1.5 (Homo sapiens, UniProt Q14524); assay type: cell-based
Nav1.5 [5] = target: T1, Nav1.5
Nav1.5 (SCN5A) = Nav1.5 (SCN5A) (Homo sapiens, UniProt Q14524); assay type: cell-based
Nav = conditions: cited from earlier work
Nav1.5 [6] = target: T1, Nav1.5; assay type: cell-based; remark: listed apart in the source
[7] = test system: Nav1.5 transfected cells (CHO)
Nav1.4 [8] = target: T2, Nav1.4 (Homo sapiens, UniProt P35499); assay type: cell-based; on Mean block of INa: test concentration or dose not given here
Nav1.4 [9] = target: T2, Nav1.4; assay type: cell-based; remark: listed apart in the source
gramicidin-HEK cells = assay type: cell-based, human
Nav1.4 F1586A = Nav1.4 F1586A (Homo sapiens, UniProt P35499, F1586A); assay type: cell-based; on Mean block of INa: test concentration or dose not given here
[10] = test system: Nav1.5 transfected cells (CHO); assay type: cell-based, Chinese hamster
Nav1.5 [11] = target: T1, Nav1.5; assay type: cell-based; remark: listed apart in the source
Nav1.5 [12] = target: T1, Nav1.5; assay type: cell-based; remark: listed apart in the source
Nav1.4 [13] = target: T2, Nav1.4; conditions: read-out: resting IC50 on Nav1.4; cited from earlier work
TTX-sensitive channels = conditions: cited from earlier work
Nav1.5 [14] = target: T1, Nav1.5; assay type: cell-based; remark: listed apart in the source
Wherever contraction amplitude is given: test concentration or dose not given here.

Nav1.4 WWWW, sequence (P35499 whole entry F432W/V787W/I1280W/I1583W, looked up): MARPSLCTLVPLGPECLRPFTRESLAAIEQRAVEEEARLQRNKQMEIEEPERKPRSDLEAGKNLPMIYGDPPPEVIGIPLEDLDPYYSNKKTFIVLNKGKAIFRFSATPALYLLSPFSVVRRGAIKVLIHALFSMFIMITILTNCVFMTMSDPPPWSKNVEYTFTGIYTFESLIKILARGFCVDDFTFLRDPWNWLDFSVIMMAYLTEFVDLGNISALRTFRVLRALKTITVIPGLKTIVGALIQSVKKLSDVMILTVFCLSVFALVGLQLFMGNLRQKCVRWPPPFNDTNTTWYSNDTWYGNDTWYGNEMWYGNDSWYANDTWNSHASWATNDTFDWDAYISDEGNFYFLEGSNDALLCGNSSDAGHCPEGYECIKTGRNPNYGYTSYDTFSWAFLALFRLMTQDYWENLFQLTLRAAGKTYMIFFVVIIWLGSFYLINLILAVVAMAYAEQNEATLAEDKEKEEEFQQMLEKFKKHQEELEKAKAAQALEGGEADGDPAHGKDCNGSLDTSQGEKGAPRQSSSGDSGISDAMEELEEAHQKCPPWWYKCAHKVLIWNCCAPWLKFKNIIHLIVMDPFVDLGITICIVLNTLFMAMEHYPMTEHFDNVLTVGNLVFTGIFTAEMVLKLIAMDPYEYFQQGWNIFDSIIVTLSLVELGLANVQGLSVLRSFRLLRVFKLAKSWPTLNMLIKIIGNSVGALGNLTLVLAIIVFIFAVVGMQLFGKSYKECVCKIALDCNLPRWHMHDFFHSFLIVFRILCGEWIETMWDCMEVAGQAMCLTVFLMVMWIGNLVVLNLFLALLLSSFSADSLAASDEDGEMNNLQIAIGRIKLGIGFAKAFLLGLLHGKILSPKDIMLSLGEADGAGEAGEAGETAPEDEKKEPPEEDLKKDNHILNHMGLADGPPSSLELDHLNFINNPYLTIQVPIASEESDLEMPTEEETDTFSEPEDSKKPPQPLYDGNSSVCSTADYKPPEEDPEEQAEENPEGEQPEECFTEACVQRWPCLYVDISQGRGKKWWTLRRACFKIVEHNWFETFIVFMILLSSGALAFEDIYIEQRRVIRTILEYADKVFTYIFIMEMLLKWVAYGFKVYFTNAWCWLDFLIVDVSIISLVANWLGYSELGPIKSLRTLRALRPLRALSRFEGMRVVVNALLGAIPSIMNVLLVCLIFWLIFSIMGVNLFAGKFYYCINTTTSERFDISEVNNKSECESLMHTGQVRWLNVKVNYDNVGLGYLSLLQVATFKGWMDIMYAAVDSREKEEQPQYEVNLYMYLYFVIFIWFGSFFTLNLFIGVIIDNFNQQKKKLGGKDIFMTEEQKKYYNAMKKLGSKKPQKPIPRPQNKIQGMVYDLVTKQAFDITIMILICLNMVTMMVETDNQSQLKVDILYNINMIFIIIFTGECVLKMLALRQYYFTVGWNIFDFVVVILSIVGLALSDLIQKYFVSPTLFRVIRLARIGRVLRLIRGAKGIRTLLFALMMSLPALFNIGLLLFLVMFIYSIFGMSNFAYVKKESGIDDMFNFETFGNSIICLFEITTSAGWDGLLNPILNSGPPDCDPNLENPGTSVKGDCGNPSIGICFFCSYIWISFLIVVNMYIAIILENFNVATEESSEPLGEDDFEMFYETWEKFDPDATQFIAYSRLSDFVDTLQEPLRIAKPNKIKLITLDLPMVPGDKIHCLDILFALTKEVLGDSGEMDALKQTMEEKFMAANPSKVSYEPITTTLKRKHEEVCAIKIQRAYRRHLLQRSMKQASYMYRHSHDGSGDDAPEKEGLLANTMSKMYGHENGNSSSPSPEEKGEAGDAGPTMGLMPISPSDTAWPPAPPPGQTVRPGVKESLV
Nav1.4 F1586A, sequence (P35499 whole entry F1586A, looked up): as the sequence (P35499 whole entry F432W/V787W/I1280W/I1583W, looked up) above, with W432F, W787V, W1280I, W1583I, F1586A counted along it
T1 sequence (Q14524 whole entry): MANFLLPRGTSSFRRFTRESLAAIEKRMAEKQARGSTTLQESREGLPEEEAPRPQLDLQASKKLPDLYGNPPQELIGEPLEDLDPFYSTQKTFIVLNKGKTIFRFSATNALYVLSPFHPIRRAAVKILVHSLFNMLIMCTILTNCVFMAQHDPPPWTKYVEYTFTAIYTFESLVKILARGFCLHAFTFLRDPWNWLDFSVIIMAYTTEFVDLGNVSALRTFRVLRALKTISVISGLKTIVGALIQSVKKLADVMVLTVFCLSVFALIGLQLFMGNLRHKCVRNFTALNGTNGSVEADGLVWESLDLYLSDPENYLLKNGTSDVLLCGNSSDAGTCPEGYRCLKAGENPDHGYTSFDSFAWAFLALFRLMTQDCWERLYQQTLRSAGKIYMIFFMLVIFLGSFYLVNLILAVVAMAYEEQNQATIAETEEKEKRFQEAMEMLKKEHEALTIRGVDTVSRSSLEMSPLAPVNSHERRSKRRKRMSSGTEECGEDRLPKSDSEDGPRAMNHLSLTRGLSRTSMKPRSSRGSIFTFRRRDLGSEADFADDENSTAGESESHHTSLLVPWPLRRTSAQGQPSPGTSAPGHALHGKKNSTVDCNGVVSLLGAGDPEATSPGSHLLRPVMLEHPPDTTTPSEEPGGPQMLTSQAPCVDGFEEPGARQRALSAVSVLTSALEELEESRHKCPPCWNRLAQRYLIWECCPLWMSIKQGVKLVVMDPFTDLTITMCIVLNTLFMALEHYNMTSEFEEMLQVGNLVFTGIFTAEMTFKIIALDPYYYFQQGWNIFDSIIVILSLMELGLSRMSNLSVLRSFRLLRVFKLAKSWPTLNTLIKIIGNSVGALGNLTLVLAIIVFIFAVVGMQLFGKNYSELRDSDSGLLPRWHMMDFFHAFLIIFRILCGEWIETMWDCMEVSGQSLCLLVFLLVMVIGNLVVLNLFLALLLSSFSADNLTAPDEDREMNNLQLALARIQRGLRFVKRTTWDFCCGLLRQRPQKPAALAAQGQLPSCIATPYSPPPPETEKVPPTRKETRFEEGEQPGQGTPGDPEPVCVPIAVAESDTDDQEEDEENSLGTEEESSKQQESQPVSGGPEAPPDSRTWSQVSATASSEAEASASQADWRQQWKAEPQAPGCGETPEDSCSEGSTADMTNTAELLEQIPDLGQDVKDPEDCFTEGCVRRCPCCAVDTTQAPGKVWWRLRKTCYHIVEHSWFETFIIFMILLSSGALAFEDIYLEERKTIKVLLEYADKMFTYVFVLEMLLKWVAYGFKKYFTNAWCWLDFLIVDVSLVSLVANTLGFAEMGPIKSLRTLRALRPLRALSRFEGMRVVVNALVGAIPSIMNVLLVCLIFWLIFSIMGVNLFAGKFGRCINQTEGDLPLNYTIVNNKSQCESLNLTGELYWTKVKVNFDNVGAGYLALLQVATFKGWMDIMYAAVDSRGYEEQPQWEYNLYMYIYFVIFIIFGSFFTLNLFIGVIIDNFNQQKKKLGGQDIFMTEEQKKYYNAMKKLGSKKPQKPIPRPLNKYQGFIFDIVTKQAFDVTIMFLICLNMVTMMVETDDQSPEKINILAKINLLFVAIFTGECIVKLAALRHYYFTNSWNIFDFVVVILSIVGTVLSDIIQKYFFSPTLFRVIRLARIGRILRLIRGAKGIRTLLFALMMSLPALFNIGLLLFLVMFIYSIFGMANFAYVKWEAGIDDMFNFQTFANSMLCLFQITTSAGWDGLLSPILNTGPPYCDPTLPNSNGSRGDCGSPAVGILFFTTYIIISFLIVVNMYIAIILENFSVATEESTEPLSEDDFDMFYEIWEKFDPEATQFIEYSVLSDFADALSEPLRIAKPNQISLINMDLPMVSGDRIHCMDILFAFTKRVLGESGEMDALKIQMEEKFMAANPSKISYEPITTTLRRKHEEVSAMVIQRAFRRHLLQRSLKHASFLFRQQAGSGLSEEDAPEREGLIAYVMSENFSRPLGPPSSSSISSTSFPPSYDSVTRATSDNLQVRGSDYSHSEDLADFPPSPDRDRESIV
T2 sequence (P35499 whole entry, looked up): as the sequence (P35499 whole entry F432W/V787W/I1280W/I1583W, looked up) above, with W432F, W787V, W1280I, W1583I counted along it
Nav1.4 P1158S, sequence (P35499 whole entry P1158S, looked up): as the sequence (P35499 whole entry F432W/V787W/I1280W/I1583W, looked up) above, with W432F, W787V, P1158S, W1280I, W1583I counted along it

C=C(C)[C@@H]1CCC(C)=C[C@H]1c1c(O)cc(CCCCC)cc1O [CANNABIDIOL, 2-[(1R,6R)-3-Methyl-6-(1-methylethenyl)-2-cyclohexen-1-yl]-5-pentyl-1,3-benzenediol]
contraction amplitude (rat diaphragm muscle): ~60 % of control | drop in potency in pore-mutant [1]: ~2.5 fold | peak heat of titration [2]: 1022.2 ± 160.6 kcal/mol | gramicidin signal (fluorescence quench) [3]: alters the gramicidin signal | SSFI V1/2 (Nav1.4 P1158S; pH6.4): −81.7±2.3 mV | SSFI z (Nav1.4 P1158S; pH6.4): 2.7±0.3 | activation V1/2 (Nav1.4 P1158S; pH6.4): −21.1±3.3 mV | activation z (Nav1.4 P1158S; pH6.4): 2.5±0.2 | persistent currents, Percentage (Nav1.4 P1158S; pH6.4): 5.4±1.2% | SSFI V1/2 (Nav1.4 P1158S; pH7.4): −83.0±2.6 mV | SSFI z (Nav1.4 P1158S; pH7.4): 3.0±0.3 | activation V1/2 (Nav1.4 P1158S; pH7.4): −32.7±3.6 mV | activation z (Nav1.4 P1158S; pH7.4): 2.9±0.2 | persistent currents, Percentage (Nav1.4 P1158S; pH7.4): 1.0±0.2% | Mean block of INa (Nav1.4 WWWW): 6.4±1.3% | GV − z (slope) (Nav1.5 [4]): 4.7 ± 0.9 and 3.7 ± 0.6 and 2.8 ± 0.2 and 3.1 ± 0.2 | Azithromycin-induced late sodium current (Nav1.5 [5]): the late current was reduced | activation and steady-state inactivation curves (Nav1.5 (SCN5A)): rescues the activation and steady-state inactivation curves | late sodium current (Nav1.5 (SCN5A)): indistinguishable from control | state-dependence in Nav inhibition (Nav): approximately 10 fold | IC50 (Nav; read-out: IC50, inactivated Nav): ~1 µM | IC50 (Nav; read-out: IC50, resting Nav): ~10 µM | Percentage of persistent INa (Nav1.5 [6]): 0.93 ± 0.05% and 1.04 ± 0.11% and 0.88 ± 0.07% | effect on reduction in cell viability at high glucose [7]: attenuated the reduction in cell viability | Mean block of INa (Nav1.4 [8]): 42.4±6.4% and ~45% | SSFI V1/2 (Nav1.4 [9]): −72.7±3.0 mV | SSFI z (Nav1.4 [9]): −2.8±0.4 | activation V1/2 (Nav1.4 [9]): −14.3±4.2 mV | activation z (Nav1.4 [9]): 2.8±0.3 | gramicidin currents (gramicidin-HEK cells): slightly altered gramicidin currents | Mean block of INa (Nav1.4 F1586A): 25.3±4.8% and ~25% | difference between inhibition of WT vs. F1586A (Nav1.4 F1586A): 1.5 fold | ROS levels at high glucose [10]: complete reduction of ROS levels

CCCCCCCCCCCCCC(=O)O[C@@H]1[C@@H](C)[C@@]2(O)[C@@H](C=C(CO)C[C@]3(O)C(=O)C(C)=C[C@@H]23)[C@@H]2C(C)(C)[C@]12OC(C)=O [PMA]
SSFI V1/2 (Nav1.5 [11]): −76.4 ± 1.7 mV | SSFI − z (slope) (Nav1.5 [11]): −2.9 ± 0.2 | Percentage of persistent INa (Nav1.5 [6]): 2.18 ± 0.06% | GV − V1/2 (Steady state activation) (Nav1.5 [12]): −22.6 ± 1.6 mV | GV − z (slope) (Nav1.5 [12]): 2.5 ± 0.1

CCN(CC)CC(=O)Nc1c(C)cccc1C [Lidocaine, lidocaine]
peak heat of titration [2]: 968.0 ± 23.4 kcal/mol | Mean block of INa (Nav1.4 WWWW): 53.6±11.7% | IC50 (Nav1.4 [13]): 1100 µM | Mean block of INa (Nav1.4 [8]): 60.6±2.3% and ~60% | Mean block of INa (Nav1.4 F1586A): 24.6±9.3% and ~20% | difference between inhibition of WT vs. F1586A (Nav1.4 F1586A): 3 fold

NC1=N[C@H](O)[C@H]2[C@H]3O[C@]4(O)O[C@@H]([C@@H](O)[C@@]2(N1)[C@@H]4O)[C@]3(O)CO [TTX, tetrodotoxin]
contraction amplitude (rat diaphragm muscle): ~20 % of control | IC50 (TTX-sensitive channels): 0.01 to 0.03 µM

CC[C@H]1OC(=O)[C@H](C)[C@@H](O[C@H]2C[C@@](C)(OC)[C@@H](O)[C@H](C)O2)[C@H](C)[C@@H](O[C@@H]2O[C@H](C)C[C@H](N(C)C)[C@H]2O)[C@](C)(O)C[C@@H](C)CN(C)[C@H](C)[C@@H](O)[C@]1(C)O [Azithromycin]
late sodium current compared to control (Nav1.5 [5]): an increase in late sodium current

OC[C@@H](O)[C@@H](O)[C@H](O)[C@H](O)CO [Mannitol, mannitol]
GV − V1/2 (Steady state activation) (Nav1.5 [4]): −39.2 ± 1.6 mV | GV − z (slope) (Nav1.5 [4]): 5.1 ± 0.8 | cell viability, agent alone [7]: no significant effect on the cell viability | SSF[I] − V1/2 (Steady State Fast Inactivation) (Nav1.5 [14]): −93.6 ± 2.3 mV | SSF[I] − z (slope) (Nav1.5 [14]): −2.1 ± 0.3

C[C@]12CC[C@@H]3c4ccc(O)cc4CC[C@H]3[C@@H]1CC[C@@H]2O [E2, 17β-Estradiol]
Percentage of persistent INa (Nav1.5 [6]): 0.85 ± 0.06% and 0.91 ± 0.06% and 1.92 ± 0.09% and 0.89 ± 0.06% and 1.73 ± 0.03% and 0.95 ± 0.09% and 0.90 ± 0.11% | GV − z (slope) (Nav1.5 [12]): 3.1 ± 0.1 and 3.0 ± 0.1 and 2.4 ± 0.1 and 3.5 ± 0.1 and 2.8 ± 0.1 and 3.6 ± 0.1 and 3.4 ± 0.2

CC1(C)CC(O)CC(C)(C)N1[O] [Tempol]
GV − z (slope) (Nav1.5 [4]): 3.9 ± 0.6 and 4.4 ± 0.5 and 2.6 ± 0.2 and 4.0 ± 0.6 and 2.2 ± 0.1 and 4.3 ± 1.0 and 3.4 ± 0.3 | effect on reduction in cell viability at high glucose [7]: showed similar results to CANNABIDIOL | ROS levels at high glucose [10]: complete reduction of ROS levels

Triton X100 [TX100]
gramicidin currents (gramicidin-HEK cells): altered the cationic gramicidin currents across all potentials

O=C(NCC1CCCCN1)c1cc(OCC(F)(F)F)ccc1OCC(F)(F)F (centres unmarked) [flecainide]
Mean block of INa (Nav1.4 WWWW): 76.4±11.3% | Mean block of INa (Nav1.4 [8]): 64.6±6.0%

Nc1ncnc2c1nc(Sc1ccc(Cl)cc1)n2[C@@H]1O[C@@H]2COP(=O)([O-])O[C@H]2[C@H]1O.[Na+] [CPT-cAMP, 8-(4-chlorophenylthio) adenosine-3′,5′-cyclic monophosphate]
SSFI V1/2 (Nav1.5 [11]): −79.4 ± 1.1 mV | SSFI − z (slope) (Nav1.5 [11]): −3.0 ± 0.1 | Percentage of persistent INa (Nav1.5 [6]): 2.20 ± 0.08% | GV − V1/2 (Steady state activation) (Nav1.5 [12]): −25.2 ± 0.5 mV | GV − z (slope) (Nav1.5 [12]): 2.5 ± 0.1
